ChEMBL document CHEMBL1148925, “Chaetoglobosins Q, R, and T, three further new metabolites from Chaetomium globosum” (J Nat Prod, 2004)
In brackets after ≈: the same amount, converted by molar mass.

Legend:
[1] = system: P388; test: Cytotoxicity against mouse P388 cells; format: functional, cell-based
[2] = system: Bacillus subtilis; test: Antibacterial activity against Bacillus subtilis at 15 ug/disk; format: functional; settings: read-out: IZ
[3] = system: HeLa; test: Cytotoxicity against human HeLa cells; format: functional, cell-based
[4] = system: Amorphotheca resinae; test: Antifungal activity against Cladosporium resinae at 15 ug/disk; format: functional; settings: read-out: IZ
[5] = system: Trichophyton mentagrophytes; test: Antifungal activity against Trichophyton mentagrophytes at 30 ug/disk; format: functional; settings: read-out: IZ

Compound | IC50 [1] | zone of inhibition at 15 µg/disc [2] | IC50 [3] | zone of inhibition at 15 µg/disc [4] | zone of inhibition at 30 µg/disc [5]
C=C1[C@@H](C)[C@H]2[C@H](Cc3c[nH]c4ccccc34)NC(=O)[C@]23C(=O)/C=C/C(=O)[C@H](O)/C(C)=C/[C@@H](C)C/C=C/[C@H]3[C@@H]1O [CHEATOGLOBOSIN D] | 4.92 µg/mL (≈ 9.31 µM) | 3 mm | 3.2 µg/mL (≈ 6.05 µM) |  | 
CC1=C(C)[C@H]2[C@H](Cc3c[nH]c4ccccc34)NC(=O)[C@]23C(=O)CCC(=O)C(=O)/C(C)=C/[C@@H](C)C/C=C/[C@H]3[C@@H]1O [CHEATOGLOBOSIN G] |  |  | 3.2 µg/mL (≈ 6.05 µM) |  | 
CC1=C(C)[C@H]2[C@H](Cc3c[nH]c4ccccc34)NC(=O)[C@]23C(=O)/C=C/C(=O)[C@H](O)/C(C)=C/[C@@H](C)C/C=C/[C@H]3[C@@H]1O [CHEATOGLOBOSIN B] | 3.45 µg/mL (≈ 6.53 µM) | 1 mm | 3.2 µg/mL (≈ 6.05 µM) |  | 
C/C1=C\[C@@H](C)C/C=C/[C@H]2[C@@H]3O[C@]3(C)[C@@H](C)[C@H]3[C@H](Cc4c[nH]c5ccccc45)NC(=O)[C@]32C(=O)/C=C/C(=O)[C@@H]1O [CHAETOGLOBOSIN A] | 1.94 µg/mL (≈ 3.67 µM) | 3 mm | 3.2 µg/mL (≈ 6.05 µM) | 5 mm | 
C/C1=C\[C@@H](C)C/C=C/[C@H]2[C@@H]3O[C@]3(C)[C@@H](C)[C@H]3[C@H](Cc4c[nH]c5ccccc45)NC(=O)[C@]32C(=O)CC[C@H](O)C1=O [CHAETOGLOBOSIN F] |  |  | 3.2 µg/mL (≈ 6.03 µM) |  | 
CC1=C[C@@H]2/C=C/C[C@H](C)/C=C(\C)CC(=O)/C=C/C(=O)[C@]23C(=O)N[C@@H](Cc2c[nH]c4ccccc24)[C@@H]3[C@@H]1C [PROCHEATOGLOBOSIN II] | 3.99 µg/mL (≈ 8.03 µM) |  |  |  | 2 mm
CC1=C[C@@H]2/C=C/C[C@H](C)/C=C(\C)[C@@H](O)C(=O)/C=C/C(=O)[C@]23C(=O)N[C@@H](Cc2c[nH]c4ccccc24)[C@@H]3[C@@H]1C [CHEATOGLOBOSIN J] | 2.47 µg/mL (≈ 4.82 µM) | 2 mm | 3.2 µg/mL (≈ 6.24 µM) |  | 
CC1=C[C@@H]2/C=C/C[C@H](C)/C=C(\C)CC/C=C/C(=O)[C@]23C(=O)N[C@@H](Cc2c[nH]c4ccccc24)[C@@H]3[C@@H]1C [PROCHEATOGLOBOSIN I] | 3.99 µg/mL (≈ 8.27 µM) |  |  |  | 2 mm
C/C1=C\[C@@H](C)C/C=C/[C@H]2[C@@H]3O[C@]3(C)[C@@H](C)[C@H]3[C@H](Cc4c[nH]c5ccccc45)NC(=O)[C@]32C(=O)CCC(=O)C1=O [CHAETOGLOBOSIN C] |  |  | 3.2 µg/mL (≈ 6.05 µM) |  | 
CC1=C[C@@H]2/C=C/C[C@H](C)/C=C(\C)[C@@H](O)C/C=C/C(=O)[C@]23C(=O)N[C@@H](Cc2c[nH]c4ccccc24)[C@@H]3[C@@H]1C [CHEATOGLOBOSIN T] | 1.58 µg/mL (≈ 3.17 µM) |  |  |  | 
C/C1=C\[C@@H](C)C/C=C/[C@H]2[C@H](O)[C@](C)(O)[C@@H](C)[C@H]3[C@H](Cc4c[nH]c5ccccc45)NC(=O)[C@]32C(=O)/C=C/C(=O)[C@@H]1O [CHAETOGLOBOSIN Q] | 2.19 µg/mL (≈ 4.01 µM) |  |  |  | 
CC1=C(C)[C@H]2[C@H](Cc3c[nH]c4ccccc34)NC(=O)[C@]23C(=O)CC[C@H](O)C(=O)/C(C)=C/[C@@H](C)C/C=C/[C@H]3[C@@H]1O [CHAETOGLOBOSIN E] |  |  | 3.2 µg/mL (≈ 6.03 µM) |  | 
